Test results taken from patent US12723063B2, “GIPR-agonist compounds” (Eli Lilly and Company, priority 2019, dated 2026).
*1 amine or outer side, *2 acyl side, *3 side chain or, on linkers, in order; H or OH if unused. Where a SMILES comes first, the peptide text is derived from it. Side-chain parts run from the residue outwards. [ ]: non-standard residue; d: D form. The star is where a group is joined. C20 diacid = O=C(O)CCCCCCCCCCCCCCCCCCC(=O)*; αMePhe(2-F) = C[C@](N)(Cc1ccccc1F)C(=O)O; γGlu = O=C(O)[C@H](CCC(=O)[*:2])N[*:1]; αMeF = C[C@](N)(Cc1ccccc1)C(=O)O; 4Pal = N[C@@H](Cc1ccncc1)C(=O)O; αMeL = CC(C)C[C@](C)(N)C(=O)O; AEEA = NCCOCCOCC(=O)O; Aib = CC(C)(N)C(=O)O

How the values were obtained:
Assay in all cases: cAMP functional assay (HTRF) in HEK293 cells in presence of 0.1% casein
Type in all cases: cell-based
[1] = biological target: T1, human GLP-1 receptor (GLP-1R) (Homo sapiens, UniProt P43220); details: HEK293 cells expressing human GLP-1R, geometric mean, read-out: hGLP1R cAMP Rel EC50 nM (SEM, n)
T1 construct: expressed in transfected cells; host or cells: HEK293
T1 sequence (P43220 24-463): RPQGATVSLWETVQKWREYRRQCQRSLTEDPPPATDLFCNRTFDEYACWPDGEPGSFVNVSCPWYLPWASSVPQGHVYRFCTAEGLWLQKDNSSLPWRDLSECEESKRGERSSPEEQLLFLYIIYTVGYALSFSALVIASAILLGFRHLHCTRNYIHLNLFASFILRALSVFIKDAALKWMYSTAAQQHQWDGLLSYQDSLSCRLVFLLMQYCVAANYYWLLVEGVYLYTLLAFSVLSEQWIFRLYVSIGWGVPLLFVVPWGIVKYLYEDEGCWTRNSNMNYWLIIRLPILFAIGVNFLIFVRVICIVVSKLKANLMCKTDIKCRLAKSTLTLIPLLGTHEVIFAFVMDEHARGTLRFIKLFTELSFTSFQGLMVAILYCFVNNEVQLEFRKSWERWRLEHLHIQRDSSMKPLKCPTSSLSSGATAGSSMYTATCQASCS

[2] = biological target: T2, human glucagon receptor (GcgR) (Homo sapiens, UniProt P47871); details: HEK293 cells expressing human GcgR, geometric mean, read-out: hGcgR cAMP Rel EC50 nM (SEM, n)
T2 construct: expressed in transfected cells; host or cells: HEK293
T2 sequence (P47871 26-477): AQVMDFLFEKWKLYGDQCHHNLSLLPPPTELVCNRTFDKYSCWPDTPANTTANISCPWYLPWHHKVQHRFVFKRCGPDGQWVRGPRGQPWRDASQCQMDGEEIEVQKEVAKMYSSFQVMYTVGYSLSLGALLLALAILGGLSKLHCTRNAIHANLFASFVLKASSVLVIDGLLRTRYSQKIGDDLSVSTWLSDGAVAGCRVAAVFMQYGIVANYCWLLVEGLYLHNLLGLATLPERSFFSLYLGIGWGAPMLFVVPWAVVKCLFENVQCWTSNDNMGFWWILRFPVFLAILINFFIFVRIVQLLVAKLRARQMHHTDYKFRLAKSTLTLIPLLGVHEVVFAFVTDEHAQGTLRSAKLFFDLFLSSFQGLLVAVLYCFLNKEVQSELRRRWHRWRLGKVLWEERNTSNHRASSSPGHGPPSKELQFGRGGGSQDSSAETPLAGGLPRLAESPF

[3] = biological target: T3, human glucose-dependent insulinotropic peptide receptor (GIPR) (Homo sapiens, UniProt P48546); details: HEK293 cells expressing human GIPR, geometric mean, read-out: hGIPR cAMP Rel EC50 nM (SEM, n)
T3 construct: expressed in transfected cells; host or cells: HEK293
T3 sequence (P48546 22-466): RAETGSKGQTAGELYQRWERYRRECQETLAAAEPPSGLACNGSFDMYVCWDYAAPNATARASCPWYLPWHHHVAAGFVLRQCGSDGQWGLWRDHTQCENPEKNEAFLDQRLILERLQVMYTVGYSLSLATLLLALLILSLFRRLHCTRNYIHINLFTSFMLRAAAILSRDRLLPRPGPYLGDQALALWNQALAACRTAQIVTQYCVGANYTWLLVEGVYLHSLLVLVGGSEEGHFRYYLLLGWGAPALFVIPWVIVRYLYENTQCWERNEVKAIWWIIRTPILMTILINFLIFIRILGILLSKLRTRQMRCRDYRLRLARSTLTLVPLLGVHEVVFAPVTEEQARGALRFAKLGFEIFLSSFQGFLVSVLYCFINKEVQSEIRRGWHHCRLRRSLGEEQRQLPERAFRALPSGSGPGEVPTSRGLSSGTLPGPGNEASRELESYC

`CC[C@H](C)[C@H](NC(=O)[C@H](Cc1ccccc1)NC(=O)[C@@H](NC(=O)CNC(=O)[C@H](CCC(=O)O)NC(=O)C(C)(C)NC(=O)[C@@H](N)Cc1ccc(O)cc1)[C@@H](C)O)C(=O)N[C@@H](CO)C(=O)N[C@@H](CC(=O)O)C(=O)N[C@@H](Cc1ccc(O)cc1)C(=O)N[C@@H](CO)C(=O)N[C@H](C(=O)N[C@@](C)(CC(C)C)C(=O)N[C@@H](CC(C)C)C(=O)N[C@@H](CC(=O)O)C(=O)N[C@@H](CCCCN)C(=O)N[C@@H](CCCCNC(=O)COCCOCCNC(=O)COCCOCCNC(=O)CC[C@H](NC(=O)CCCCCCCCCCCCCCCCCCC(=O)O)C(=O)O)C(=O)N[C@@H](Cc1c[nH]cn1)C(=O)N[C@@H](CCC(N)=O)C(=O)NC(C)(C)C(=O)N[C@@H](CC(=O)O)C(=O)N[C@@H](Cc1ccccc1)C(=O)N[C@H](C(=O)N[C@@H](CCC(=O)O)C(=O)N[C@@H](Cc1ccc(O)cc1)C(=O)N[C@@H](CC(C)C)C(=O)N[C@@H](CC(C)C)C(=O)N[C@@H](CCC(=O)O)C(=O)N[C@H](C(=O)NCC(=O)N1CCC[C@H]1C(=O)N[C@@H](CO)C(=O)N[C@@H](CO)C(=O)NCC(=O)N[C@@H](C)C(=O)N1CCC[C@H]1C(=O)N1CCC[C@H]1C(=O)N1CCC[C@H]1C(=O)N[C@@H](CO)C(N)=O)[C@@H](C)O)C(C)C)[C@@H](C)CC` [Example 66] (H-Y[Aib]EGTFISDYSI[αMeL]LDKK([AEEA-AEEA-γGlu-C20 diacid])HQ[Aib]DFVEYLLETGPSSGAPPPS-NH2) gave an EC50 [1] greater than 5000 nM, an EC50 [2] greater than 5000 nM and an EC50 [3] of 0.0786 nM.

For `CC[C@H](C)[C@H](NC(=O)[C@H](Cc1ccccc1)NC(=O)[C@@H](NC(=O)CNC(=O)[C@H](CCC(=O)O)NC(=O)C(C)(C)NC(=O)[C@@H](N)Cc1ccc(O)cc1)[C@@H](C)O)C(=O)N[C@@H](CO)C(=O)N[C@@H](CC(=O)O)C(=O)N[C@@H](Cc1ccc(O)cc1)C(=O)N[C@@H](CO)C(=O)N[C@H](C(=O)N[C@@](C)(CC(C)C)C(=O)N[C@@H](CC(C)C)C(=O)N[C@@H](CC(=O)O)C(=O)N[C@@H](CCCCN)C(=O)N[C@@H](CCCCNC(=O)COCCOCCNC(=O)COCCOCCNC(=O)CC[C@H](NC(=O)CCCCCCCCCCCCCCCCCCC(=O)O)C(=O)O)C(=O)N[C@@H](Cc1c[nH]cn1)C(=O)N[C@@H](CCC(N)=O)C(=O)NC(C)(C)C(=O)N[C@@H](CC(=O)O)C(=O)N[C@@H](Cc1ccccc1)C(=O)N[C@H](C(=O)N[C@@H](CCC(=O)O)C(=O)N[C@@H](Cc1ccncc1)C(=O)N[C@@H](CC(C)C)C(=O)N[C@@H](CC(C)C)C(=O)N[C@@H](C)C(=O)N[C@H](C(=O)NCC(=O)N1CCC[C@H]1C(=O)N[C@@H](CO)C(=O)N[C@@H](CO)C(=O)NCC(=O)N[C@@H](C)C(=O)N1CCC[C@H]1C(=O)N1CCC[C@H]1C(=O)N1CCC[C@H]1C(=O)N[C@@H](CO)C(N)=O)[C@@H](C)O)C(C)C)[C@@H](C)CC` [Example 70] (H-Y[Aib]EGTFISDYSI[αMeL]LDKK([AEEA-AEEA-γGlu-C20 diacid])HQ[Aib]DFVE[4Pal]LLATGPSSGAPPPS-NH2), the EC50 [1] was greater than 5000 nM, the EC50 [2] was 3560 nM and the EC50 [3] was 0.0254 nM.

Work on `CC[C@H](C)[C@H](NC(=O)[C@H](Cc1ccccc1)NC(=O)[C@@H](NC(=O)CNC(=O)[C@H](CCC(=O)O)NC(=O)C(C)(C)NC(=O)[C@@H](N)Cc1ccc(O)cc1)[C@@H](C)O)C(=O)N[C@@H](CO)C(=O)N[C@@H](CC(=O)O)C(=O)N[C@@H](Cc1ccc(O)cc1)C(=O)N[C@@H](CO)C(=O)N[C@H](C(=O)N[C@@](C)(CC(C)C)C(=O)N[C@@H](CC(C)C)C(=O)N[C@@H](CC(=O)O)C(=O)N[C@@H](CCCCN)C(=O)N[C@@H](CCCCNC(=O)COCCOCCNC(=O)COCCOCCNC(=O)CC[C@H](NC(=O)CCCCCCCCCCCCCCCCCCC(=O)O)C(=O)O)C(=O)N[C@@H](Cc1c[nH]cn1)C(=O)N[C@@H](CCC(N)=O)C(=O)NC(C)(C)C(=O)N[C@@H](CCC(=O)O)C(=O)N[C@@H](Cc1ccccc1)C(=O)N[C@H](C(=O)N[C@@H](CCC(=O)O)C(=O)N[C@@H](Cc1ccncc1)C(=O)N[C@@H](CC(C)C)C(=O)N[C@@H](CC(C)C)C(=O)N[C@@H](C)C(=O)N[C@H](C(=O)NCC(=O)N1CCC[C@H]1C(=O)N[C@@H](CO)C(=O)N[C@@H](CO)C(=O)NCC(=O)N[C@@H](C)C(=O)N1CCC[C@H]1C(=O)N1CCC[C@H]1C(=O)N1CCC[C@H]1C(=O)N[C@@H](CO)C(N)=O)[C@@H](C)O)C(C)C)[C@@H](C)CC` [Example 58] (H-Y[Aib]EGTFISDYSI[αMeL]LDKK([AEEA-AEEA-γGlu-C20 diacid])HQ[Aib]EFVE[4Pal]LLATGPSSGAPPPS-NH2) yielded an EC50 [1] greater than 5000 nM, an EC50 [2] greater than 5000 nM and an EC50 [3] of 0.0183 nM.

Compound `CC[C@H](C)[C@H](NC(=O)[C@H](Cc1ccccc1)NC(=O)[C@@H](NC(=O)CNC(=O)[C@H](CCC(=O)O)NC(=O)C(C)(C)NC(=O)[C@@H](N)Cc1ccc(O)cc1)[C@@H](C)O)C(=O)N[C@@H](CO)C(=O)N[C@@H](CC(=O)O)C(=O)N[C@@H](Cc1ccc(O)cc1)C(=O)N[C@@H](CO)C(=O)N[C@H](C(=O)N[C@@](C)(CC(C)C)C(=O)N[C@@H](CC(C)C)C(=O)N[C@@H](CC(=O)O)C(=O)N[C@@H](CCCCN)C(=O)N[C@@H](CCCCNC(=O)COCCOCCNC(=O)COCCOCCNC(=O)CC[C@H](NC(=O)CCCCCCCCCCCCCCCCCCC(=O)O)C(=O)O)C(=O)N[C@@H](Cc1c[nH]cn1)C(=O)N[C@@H](CCC(N)=O)C(=O)NC(C)(C)C(=O)N[C@@H](CCC(=O)O)C(=O)N[C@@H](Cc1ccccc1)C(=O)N[C@H](C(=O)N[C@@H](CCC(=O)O)C(=O)N[C@@H](Cc1ccc(O)cc1)C(=O)N[C@@H](CC(C)C)C(=O)N[C@@H](CC(C)C)C(=O)N[C@@H](CCC(=O)O)C(=O)N[C@@H](C)C(=O)NCC(=O)N1CCC[C@H]1C(=O)N[C@@H](CO)C(=O)N[C@@H](CO)C(=O)NCC(=O)N[C@@H](C)C(=O)N1CCC[C@H]1C(=O)N1CCC[C@H]1C(=O)N1CCC[C@H]1C(=O)N[C@@H](CO)C(N)=O)C(C)C)[C@@H](C)CC` [Example 65] (H-Y[Aib]EGTFISDYSI[αMeL]LDKK([AEEA-AEEA-γGlu-C20 diacid])HQ[Aib]EFVEYLLEAGPSSGAPPPS-NH2) has an EC50 [1] greater than 5000 nM, an EC50 [2] of 850 nM and an EC50 [3] of 0.0346 nM.

With `CC[C@H](C)[C@H](NC(=O)[C@H](CO)NC(=O)[C@H](Cc1ccc(O)cc1)NC(=O)[C@H](CC(=O)O)NC(=O)[C@H](CO)NC(=O)[C@@H](NC(=O)[C@](C)(Cc1ccccc1F)NC(=O)[C@@H](NC(=O)CNC(=O)[C@H](CCC(=O)O)NC(=O)C(C)(C)NC(=O)[C@@H](N)Cc1ccc(O)cc1)[C@@H](C)O)[C@@H](C)CC)C(=O)N[C@@H](C)C(=O)N[C@@H](CC(C)C)C(=O)N[C@@H](CC(=O)O)C(=O)N[C@@H](CCCCN)C(=O)N[C@@H](CCCCNC(=O)COCCOCCNC(=O)COCCOCCNC(=O)CC[C@H](NC(=O)CCCCCCCCCCCCCCCCCCC(=O)O)C(=O)O)C(=O)N[C@@H](Cc1c[nH]cn1)C(=O)N[C@@H](CCC(N)=O)C(=O)NC(C)(C)C(=O)N[C@@H](CC(=O)O)C(=O)N[C@@H](Cc1ccccc1)C(=O)N[C@H](C(=O)N[C@@H](CCC(=O)O)C(=O)N[C@@H](Cc1ccncc1)C(=O)N[C@@H](CC(C)C)C(=O)N[C@@H](CC(C)C)C(=O)N[C@@H](CCC(=O)O)C(=O)N[C@H](C(=O)NCC(=O)N1CCC[C@H]1C(=O)N[C@@H](CO)C(=O)N[C@@H](CO)C(=O)NCC(=O)N[C@@H](C)C(=O)N1CCC[C@H]1C(=O)N1CCC[C@H]1C(=O)N1CCC[C@H]1C(=O)N[C@@H](CO)C(N)=O)[C@@H](C)O)C(C)C` [Example 38] (H-Y[Aib]EGT[αMePhe(2-F)]ISDYSIALDKK([AEEA-AEEA-γGlu-C20 diacid])HQ[Aib]DFVE[4Pal]LLETGPSSGAPPPS-NH2) the EC50 [1] was 1390 nM, the EC50 [2] was greater than 5000 nM and the EC50 [3] was 0.0368 nM.

`CC[C@H](C)[C@H](NC(=O)[C@H](CO)NC(=O)[C@H](Cc1ccc(O)cc1)NC(=O)[C@H](CC(=O)O)NC(=O)[C@H](CO)NC(=O)[C@@H](NC(=O)[C@](C)(Cc1ccccc1)NC(=O)[C@@H](NC(=O)CNC(=O)[C@H](CCC(=O)O)NC(=O)C(C)(C)NC(=O)[C@@H](N)Cc1ccc(O)cc1)[C@@H](C)O)[C@@H](C)CC)C(=O)N[C@@](C)(CC(C)C)C(=O)N[C@@H](CC(C)C)C(=O)N[C@@H](CC(=O)O)C(=O)N[C@@H](CCCCN)C(=O)N[C@@H](CCCCNC(=O)COCCOCCNC(=O)COCCOCCNC(=O)CC[C@H](NC(=O)CCCCCCCCCCCCCCCCCCC(=O)O)C(=O)O)C(=O)N[C@@H](Cc1c[nH]cn1)C(=O)N[C@@H](CCC(N)=O)C(=O)NC(C)(C)C(=O)N[C@@H](CCC(=O)O)C(=O)N[C@@H](Cc1ccccc1)C(=O)N[C@H](C(=O)N[C@@H](CCC(=O)O)C(=O)N[C@@H](Cc1ccncc1)C(=O)N[C@@H](CC(C)C)C(=O)N[C@@H](CC(C)C)C(=O)N[C@@H](C)C(=O)N[C@@H](C)C(=O)NCC(=O)N1CCC[C@H]1C(=O)N[C@@H](CO)C(=O)N[C@@H](CO)C(=O)NCC(=O)N[C@@H](C)C(=O)N1CCC[C@H]1C(=O)N1CCC[C@H]1C(=O)N1CCC[C@H]1C(=O)N[C@@H](CO)C(N)=O)C(C)C` [Example 62] (H-Y[Aib]EGT[αMeF]ISDYSI[αMeL]LDKK([AEEA-AEEA-γGlu-C20 diacid])HQ[Aib]EFVE[4Pal]LLAAGPSSGAPPPS-NH2) showed an EC50 [1] of 58.2 nM, an EC50 [2] greater than 5000 nM and an EC50 [3] of 0.0116 nM.
